Results taken from the NIST ThermoML archive (doi:10.1021/acs.jced.7b00221).

Assay: xn = mol fraction of the nth substance listed
Conditions: 100 kPa, Liquid; for viscosity: Cone and plate viscometry; for mass density: Vibrating tube method

CCCCCCCC[P+](CC)(CC)CC.O=[N+]([O-])c1cn[n-]c1 [triethyloctylphosphonium 4-nitropyrazolide] + CCCCCCn1cc[n+](C)c1C.O=S(=O)([N-]S(=O)(=O)C(F)(F)F)C(F)(F)F
Conditions	mass density [kg/m3]	viscosity [mPa·s]
278.15 K, x1 = 0.124	–	602
278.15 K, x1 = 0.25	–	771
278.15 K, x1 = 0.401	–	1011
278.15 K, x1 = 0.5	–	1156
278.15 K, x1 = 0.6	–	1244
278.15 K, x1 = 0.751	–	1382
278.15 K, x1 = 0.9	–	1386
283.15 K, x1 = 0.124	1331.5	409
283.15 K, x1 = 0.25	1290	510
283.15 K, x1 = 0.401	–	658
283.15 K, x1 = 0.5	1206.7	742
283.15 K, x1 = 0.6	–	795
283.15 K, x1 = 0.751	1123.8	883
283.15 K, x1 = 0.9	1074.2	890
283.15 K, x1 = 1	1040.7	–
288.15 K, x1 = 0.124	1327.1	283
288.15 K, x1 = 0.25	1285.9	348
288.15 K, x1 = 0.401	–	442
288.15 K, x1 = 0.5	1203	491
288.15 K, x1 = 0.6	–	524
288.15 K, x1 = 0.751	1120.4	580
288.15 K, x1 = 0.9	1071	589
288.15 K, x1 = 1	1037.7	–
293.15 K, x1 = 0.124	1322.8	204
293.15 K, x1 = 0.25	1281.8	246
293.15 K, x1 = 0.401	–	307
293.15 K, x1 = 0.5	1199.2	338
293.15 K, x1 = 0.6	–	359
293.15 K, x1 = 0.751	1117	396
293.15 K, x1 = 0.9	1067.8	404
293.15 K, x1 = 1	1034.6	–
295.15 K, x1 = 0.124	1321	–
295.15 K, x1 = 0.25	1280.1	–
295.15 K, x1 = 0.5	1197.7	–
295.15 K, x1 = 0.751	1115.6	–
295.15 K, x1 = 0.9	1066.5	–
295.15 K, x1 = 1	1033.4	–
298.15 K, x1 = 0.124	1318.5	151
298.15 K, x1 = 0.25	1277.6	179
298.15 K, x1 = 0.401	–	220
298.15 K, x1 = 0.5	1195.5	241
298.15 K, x1 = 0.6	–	254
298.15 K, x1 = 0.751	1113.6	279
298.15 K, x1 = 0.9	1064.6	285
298.15 K, x1 = 1	1031.5	–
303.15 K, x1 = 0.124	1314.3	115
303.15 K, x1 = 0.25	1273.7	135
303.15 K, x1 = 0.401	–	163
303.15 K, x1 = 0.5	1191.8	177
303.15 K, x1 = 0.6	–	185
303.15 K, x1 = 0.751	1110.2	203
303.15 K, x1 = 0.9	1061.4	208
303.15 K, x1 = 1	1028.5	–
308.15 K, x1 = 0.124	1310.1	90
308.15 K, x1 = 0.25	1269.7	104
308.15 K, x1 = 0.401	–	124
308.15 K, x1 = 0.5	1188.1	134
308.15 K, x1 = 0.6	–	139
308.15 K, x1 = 0.751	1106.9	152
308.15 K, x1 = 0.9	1058.3	156
308.15 K, x1 = 1	1025.5	–
313.15 K, x1 = 0.124	1306	72
313.15 K, x1 = 0.25	1265.7	82
313.15 K, x1 = 0.401	–	97
313.15 K, x1 = 0.5	1184.5	103
313.15 K, x1 = 0.6	–	106
313.15 K, x1 = 0.751	1103.7	117
313.15 K, x1 = 0.9	1055.3	119
313.15 K, x1 = 1	1022.6	–
318.15 K, x1 = 0.124	1301.8	58
318.15 K, x1 = 0.25	1261.7	65
318.15 K, x1 = 0.401	–	77
318.15 K, x1 = 0.5	1180.9	82
318.15 K, x1 = 0.6	–	83
318.15 K, x1 = 0.751	1100.4	91
318.15 K, x1 = 0.9	1052.2	94
318.15 K, x1 = 1	1019.6	–
323.15 K, x1 = 0.124	1297.6	–
323.15 K, x1 = 0.25	1257.7	53
323.15 K, x1 = 0.401	–	63
323.15 K, x1 = 0.5	1177.3	66
323.15 K, x1 = 0.6	–	67
323.15 K, x1 = 0.751	1097.1	73
323.15 K, x1 = 0.9	1049.1	75
323.15 K, x1 = 1	1016.7	–
328.15 K, x1 = 0.124	1293.5	–
328.15 K, x1 = 0.25	1253.8	–
328.15 K, x1 = 0.5	1173.7	–
328.15 K, x1 = 0.751	1093.9	–
328.15 K, x1 = 0.9	1046.1	–
328.15 K, x1 = 1	1013.8	–
333.15 K, x1 = 0.124	1289.3	–
333.15 K, x1 = 0.25	1249.8	–
333.15 K, x1 = 0.5	1170.2	–
333.15 K, x1 = 0.751	1090.6	–
333.15 K, x1 = 0.9	1043	–
333.15 K, x1 = 1	1010.8	–
338.15 K, x1 = 0.124	1285.1	–
338.15 K, x1 = 0.25	1245.8	–
338.15 K, x1 = 0.5	1166.6	–
338.15 K, x1 = 0.751	1087.4	–
338.15 K, x1 = 0.9	1040	–
338.15 K, x1 = 1	1007.9	–
343.15 K, x1 = 0.124	1281	–
343.15 K, x1 = 0.25	1241.9	–
343.15 K, x1 = 0.5	1163	–
343.15 K, x1 = 0.751	1084.1	–
343.15 K, x1 = 0.9	1036.9	–
343.15 K, x1 = 1	1005	–
348.15 K, x1 = 0.124	1276.9	–
348.15 K, x1 = 0.25	1237.9	–
348.15 K, x1 = 0.5	1159.5	–
348.15 K, x1 = 0.751	1080.9	–
348.15 K, x1 = 0.9	1033.9	–
348.15 K, x1 = 1	1002.1	–
353.15 K, x1 = 0.124	1272.7	–
353.15 K, x1 = 0.25	1234	–
353.15 K, x1 = 0.5	1155.9	–
353.15 K, x1 = 0.751	1077.7	–
353.15 K, x1 = 0.9	1030.9	–
353.15 K, x1 = 1	999.2	–

CCCCCCCCCCCCCC[P+](CCCCCC)(CCCCCC)CCCCCC.N#Cc1ccc[n-]1 [trihexyl(tetradecyl)phosphonium 2-cyanopyrrolide] + CCCCCC[n+]1ccn(C)c1.O=S(=O)([N-]S(=O)(=O)C(F)(F)F)C(F)(F)F
viscosity [mPa·s]
Conditions	278.15 K	283.15 K	288.15 K	293.15 K	298.15 K	303.15 K	308.15 K	313.15 K	318.15 K	323.15 K
x1 = 0.1	337	240	176	132	101	80	64	52	–	–
x1 = 0.2	520	363	259	190	144	111	88	71	58	–
x1 = 0.3	662	455	319	229	170	129	100	79	64	52
x1 = 0.4	900	608	420	298	217	162	125	97	78	63
x1 = 0.496	1216	815	558	392	284	210	160	123	98	79
x1 = 0.6	1407	938	638	445	319	236	177	136	107	85
x1 = 0.698	1684	1117	755	525	376	275	207	158	124	99
x1 = 0.8	1749	1160	785	546	391	286	214	163	128	102
x1 = 0.898	1844	1223	830	578	414	303	228	173	135	108
x1 = 1	1764	1179	804	563	404	297	223	170	133	106
